Numbered stars: 1 amine (or outer) side, 2 acyl side, 3 side chain; on linkers, the order of the positions; unused ones are H or OH. Peptide text beside a SMILES is read from it. * marks the point of attachment. AMC = Cc1cc(=O)oc2cc(N*)ccc12; Suc = O=C(CCC(=O)[*:2])[*:1]
What was measured:
[1] = target: T1, 26S proteasome holoenzyme (proteolytic core sites) (Homo sapiens, UniProt P28074); assay: AMC fluorescence ([…] nm); type: biochemical; details: 1 μM substrate, 40 nM proteasome, alone or with heparin or tau aggregates
T1 construct: gene PSMB5; 26S holoenzyme (20S core with one or two 19S caps) purified from HEK293T via Rpn11-His6-TEV-biotin, TEV eluted; with Proteasome subunit beta type-1; Proteasome subunit beta type-2; Proteasome subunit beta type-3; Proteasome subunit beta type-4; Proteasome subunit alpha type-1; Proteasome subunit alpha type-2; Proteasome subunit alpha type-3; Proteasome subunit alpha type-4; Proteasome subunit alpha type-5; Proteasome subunit alpha type-6; Proteasome subunit alpha type-7; 26S proteasome non-ATPase regulatory subunit 14

[2] = target: T2, α-synuclein (αS), fibrils (Homo sapiens, UniProt P37840); assay: TIRF single-aggregate fluorescence; type: binding; details: 30 nM pFTAA in PBS, 100 nM αS (monomer equivalent); binds amyloid fibrils
T2 construct: gene SNCA; untagged wild-type recombinant from E. coli BL21(DE3) pLysS; fibrils assembled in PBS with shaking

For `Cc1cc(=O)oc2cc(NC(=O)[C@H](Cc3ccc(O)cc3)NC(=O)[C@@H](NC(=O)[C@H](CC(C)C)NC(=O)[C@H](CC(C)C)NC(=O)CCC(=O)O)C(C)C)ccc12` [LLVY-AMC] (Suc-LLVY-{AMC}), the “AMC fluorescence (340/440 nm)” value [1] was “proteasomal peptidase activity against a model substrate, suc-Leu-Leu-Val-Tyr-7-amino-4-methylcoumarin (LLVY-AMC)”.

With `O=C(O)Cc1cc(-c2ccc(C(=O)O)s2)sc1-c1ccc(-c2sc(-c3ccc(C(=O)O)s3)cc2CC(=O)O)s1` [pFTAA] the TIRF single-aggregate fluorescence [2] was “Fibrils assembled from αS could be reproducibly detected”.
